We go through one molecule from publication PMC7504466, “In-Vitro and In-Silico Evaluations of Heterocyclic-Containing Diarylpentanoids as Bcl-2 Inhibitors Against LoVo Colorectal Cancer Cells” (Molecules, 2020).

Molecules are shown by their SMILES.

Experiment [1] concerns Bad. The experiment is described as follows: Western blot, Bad. In kind it is cell-based, human. The settings on record: 5 µM, LoVo cells, detectable only after 48 h. How it is done:
(§1) Lovo cells (1.5 × 10^4 cells/cm^2) were seeded in a T75 flask and incubated at 37 °C and 5% CO2 atmosphere overnight. The seeded cells were then treated with selected compounds at 5 µM of 2e for 24 h, 48 h, and 72 h. After treatment, the cells were harvested and lysed with phenylmethanesulfonyl fluoride (PMSF)-containing cell lysis buffer. The lysates were then centrifuged at 13,300× g for 15 min and the supernatant was collected. Protein concentrations of all samples were determined using a BCA assay kit (Thermo Scientific Inc., Waltham, MA, USA). Equal amounts of protein were electrophoresed in 12% and 20% SDS-polyacrylamide gel (SDS-PAGE), and electro-transferred onto a 0.22-μm polyvinyldene difluoride membrane. Each membrane was blocked with 5% (w/v) skim milk at room temperature for 1 h followed by overnight incubation with specific primary antibodies (1:1000) at 4 °C. Subsequently, the respective membrane was washed thrice with TBST (0.05% (v/v) of tween-20) followed by 1 h incubation with secondary antibody (1:10,000). Upon completion, the membrane was washed thrice with 1X Tris-Buffered Saline, 0.1% Tween® 20 Detergent (TBST) and the immune reactive bands were developed using SuperSignal West Dura Extended Duration Substrate (Thermo Scientific Inc., Waltham, MA, USA). […]
On the technique in general: A western blot detects proteins with antibodies after separation by electrophoresis.

Experiment [2] relates to LoVo cells. The experiment is described as follows: Cell cycle analysis (flow cytometry, propidium iodide). In kind it is cell-based, human. The following applies: 2.5 and 5 µM, 24 h. How it is done:
LoVo cells (1 × 10^5 cells/well) were seeded into a 6-well plate and incubated at 37 °C and 5% CO2 atmosphere overnight. The seeded cells were then treated with different concentrations of tested compounds for 24 h. Upon completion, cells were trypsinized and washed with PBS followed by fixation with 70% ethanol overnight at 4 °C. Then, the fixed cells were centrifuged at 160× g for 5 min and the resultant cell pellet was washed twice with PBS. Subsequently, 20 μL of DNAse-free RNAse A solution (1 mg/mL) was added to the cell-containing PBS and further incubated for 15 min. Upon completion, 10 μL of propidium iodide staining buffer (10 mg/mL) was added and the resulting mixture was further incubated for 20 min at 4 °C in the dark. Lastly, samples were analyzed with a flow-cytometer (ACEA Biosciences, Inc., San Diego, CA, USA) at the PE channel. The values presented are the means ± SD of three independent experiments.
On the technique in general: A flow cytometer gives signals particle by particle.

Experiment [3] has as its system LS411N cells. As to the kind of experiment: MTT cytotoxicity assay, LS411N cells. The following applies: Homo sapiens, LS-411N, 72 h post-treatment, read-out: IC50 (µM) BRAF LS411N. The format is cell-based. The method, then: (§2) The in-vitro cytotoxic activity of the synthesized compounds on seven human CRC cell lines including KRAS (T84, SW620, LoVo) and BRAF (HT29, NCI-H508, RKO and LS411N) mutated cells were determined by MTT assay as previously described. The IC50 values obtained are summarized in Table 2 in which 5-FU and normal human dermal fibroblasts (NHDF) were used as controls. Meanwhile, a heatmap (Figure 3) was also generated using GraphPad Prism v7.0 (GraphPad Software, La Jolla, CA, USA) to visualize the cytotoxic trends of synthesized compounds graphically.
(§3) A panel of KRAS (T84, SW620 and LoVo) and BRAF (HT29, NCI-H508, RKO and LS411N) mutated human CRC cell lines were grown in Dulbecco’s modified Eagle’s medium (DMEM) containing 10% fetal bovine serum (FBS) and 1% penicillin/streptomycin at 37 °C under 5% CO2 while NHDF cells were cultured in DMEM with 5% FBS under the same condition. The culture medium was replenished every two days until the cells reached 80–90% confluency for further usage. All cell lines (T84, ATCC®CCL-248™; SW620, ATCC®CCL-227™; LoVo, ATCC®CCL-229™; HT-29, ATCC®HTB-38; NCI-H508, ATCC®CCL-253™; RKO, ATCC®CRL-2577; LS411N, ATCC®CRL-2159; NHDF, ATCC® PCS-201-010™) were purchased from American Type culture Collections (ATCC, Manassas, VA, USA).
(§4) LoVo cells (1.5–5 × 10^3 cells/well) were seeded into a 96 well plate and incubated at 37 °C and 5% CO2 atmosphere for 24 h. On the following day, the cell media were replaced with 100 µL of test compounds at various concentration. The final concentration of DMSO in the well is 0.1%. After 72 h of incubation, culture medium was removed and 100 µL of MTT (thiazoyl blue tertrazolium bromide) solution (0.5 mg/mL in culture media) was added. The resultant plates were then further incubated at 37 °C for 4 h. Upon completion, the MTT solution was removed and the formazan salts formed were dissolved in 100 µL of DMSO. The absorbance was recorded with a microplate reader at 570 nm. The IC50 values of tested compounds were calculated from three independent experiments.

The subject of experiment [4] is cleaved PARP. As to the kind of experiment: Western blot, cleaved PARP. In kind it is cell-based, human. The following applies: 5 µM, LoVo cells, after 24 h. How it is done:
as §1

Experiment [5] relates to LoVo cells. As to the kind of experiment: MTT cytotoxicity assay, LoVo cells. The following applies: Homo sapiens, 72 h post-treatment, read-out: IC50 (µM) KRAS LoVo. In kind it is cell-based. The method, then:
as §2, §3, §4
A general note: Tetrazolium assays rely on reduction of a dye to a coloured formazan, in cell work by metabolically active cells.

For experiment [6], the system named is LoVo cells. As to the kind of experiment: Measurement of intracellular ROS levels (DCFH-DA, flow cytometry). The format is cell-based, human. The settings on record: 5 µM. The method, then:
LoVo cells (1 × 10^5 cells/well) were seeded into a 6-well plate and incubated at 37 °C and 5% CO2 atmosphere overnight. After incubation, the seeded cells were treated with 1 mL of 10 µM DCFDA in culturing media for 1 h. Upon completion, the cells were washed twice with PBS followed by treatments with 5 µM of selected compounds for 24, 48 and 72 h. Then, the treated cells were harvested, washed and re-suspended in PBS followed by flow-cytometric analysis at the FITC channel.

Experiment [7] concerns T84 cells. The experiment is described as follows: MTT cytotoxicity assay, T84 cells. The format is cell-based. The following applies: Homo sapiens, 72 h post-treatment, read-out: IC50 (µM) KRAS T84. The method, then: as §2, §3, §4

What is called IC50 is the concentration at which inhibition is half-maximal. For `O=C1C(=Cc2ccccc2Br)CSCC1=Cc1ccccc1Br` [Compound 2e, 3,5-Bis(2-bromobenzylidene)tetrahydro-4H-thiopyran-4-one], the Bad expression entry in experiment [1] is recorded as “up-regulation”. Also, in experiment [2], the cell cycle effect result is given as “induce G2/M-phase cell arrest”. For the same molecule, the IC50 in experiment [3] worked out at 1.3 µM; in experiment [5], 1 µM; in experiment [7], 1.6 µM. Besides, in experiment [4], the “cleaved PARP level” value is on record as “increased”. Further, the “cellular ROS level” value in experiment [6] (24 h) was “rapid increment in cellular ROS level”; in experiment [6] (48 h and 72 h), “secondary increment of cellular ROS”.
